Measurements published in ChEMBL document CHEMBL4411302, “Aryl H-phosphonates. 19. New anti-HIV pronucleotide phosphoramidate diesters containing amino- and hydroxypyridine auxiliaries” (Eur J Med Chem, 2019).

Legend:
[1] = tested on: Human immunodeficiency virus 1; assay: Antiviral activity against HIV1 infected in human CEM-T4 cells assessed as protection against virus-induced cytopathogenicity by measuring reduction in p24 level preincubated with cells for 24 hrs followed by viral infection and measured after 8 days by MTT assay; format: functional, organism-based
[2] = Cytotoxicity against human CEM-T4 cells assessed as reduction in cell viability after 7 days by MTT assay; format: cell-based; settings: for CC50 at 168 h: CEM-T4 cells; for CC50: 168 h
[3] = Selectivity index, ratio of CC50 for human CEM-T4 cells to EC50 for HIV1 infected in human CEM-T4 cells; format: toxicity, cell-based; settings: read-out: Ratio CC50/EC50
[4] = Half life of the compound in RPMI media at 37 degC; format: physicochemical; settings: for half-life: RPMI media
[5] = Prodrug activation in RPMI media assessed as hydrolysis by measuring P-O bond cleavage
[6] = Stability of the compound in RPMI media up to 7 days; format: physicochemical; settings: 168 h
[7] = Prodrug activation in RPMI media assessed as hydrolysis by measuring P-O bond cleavage measured after 24 days; settings: 576 h
[8] = Human immunodeficiency virus 1, CEM-T4, read-out: EC50

Row | Structure (SMILES) | EC50 [1, 8] | CC50 at 168 h [2] | selectivity ratio [3] | half-life [4] | EC50 [1] | CC50 [2] | Drug metabolism [5] | t1/2 [4] | Stability [6] | Drug metabolism [7]
1 | O=c1ccn([C@H]2CC[C@@H](COP(=O)(Nc3ccccc3)Oc3cccnc3)O2)c(=O)[nH]1 (stereo partly specified) | 7.3 µM | 225 µM | 31 | 120 h | – | – | – | – | – | –
2 | Cc1cn([C@H]2C[C@H](N=[N+]=[N-])[C@@H](COP(=O)(Nc3cccnc3)Oc3ccccc3)O2)c(=O)[nH]c1=O (stereo partly specified) | 0.035 µM | > 400 µM | > 11400 | 168 h | – | – | – | – | – | –
3 | O=c1ccn([C@H]2CC[C@@H](COP(=O)(Nc3cccnc3)Oc3cccnc3)O2)c(=O)[nH]1 (stereo partly specified) | 0.55 µM | > 200 µM | > 364 | 20 h | – | – | – | – | – | –
4 | Cc1cn([C@H]2C[C@H](N=[N+]=[N-])[C@@H](COP(=O)(Nc3ccncc3)Oc3ccccn3)O2)c(=O)[nH]c1=O (stereo partly specified) | 0.16 µM | > 50 µM | > 250 | 120 h | – | – | – | – | – | –
5 | Cc1cn([C@H]2C[C@H](N=[N+]=[N-])[C@@H](COP(=O)(Nc3ccccc3)Oc3cccnc3)O2)c(=O)[nH]c1=O (stereo partly specified) | < 0.012 µM | 360 µM | > 30000 | 82 h | – | – | – | – | – | –
6 | Cc1cn([C@H]2C[C@H](N=[N+]=[N-])[C@@H](COP(=O)(Nc3cccnc3)Oc3ccncc3)O2)c(=O)[nH]c1=O (stereo partly specified) | – | – | – | – | Nd(Unstable) | Nd(Unstable) | Nd(Unstable) | Nd(Unstable) | – | –
7 | Cc1cn([C@H]2C[C@H](N=[N+]=[N-])[C@@H](COP(=O)(Nc3ccccc3)Oc3ccncc3)O2)c(=O)[nH]c1=O (stereo partly specified) | – | – | – | – | Nd(Unstable) | Nd(Unstable) | Nd(Unstable) | Nd(Unstable) | – | –
8 | Cc1cn([C@H]2C[C@H](N=[N+]=[N-])[C@@H](COP(=O)(Nc3cccnc3)Oc3cccnc3)O2)c(=O)[nH]c1=O (stereo partly specified) | < 0.02 µM | > 200 µM | > 10000 | 27 h | – | – | – | – | – | –
9 | Cc1cn([C@H]2C[C@H](N=[N+]=[N-])[C@@H](COP(=O)(Nc3cccnc3)Oc3ccccn3)O2)c(=O)[nH]c1=O (stereo partly specified) | 0.06 µM | > 200 µM | > 3300 | 33 h | – | – | – | – | – | –
10 | Cc1cn([C@H]2C[C@H](N=[N+]=[N-])[C@@H](COP(=O)(Nc3ccccc3)Oc3ccccc3)O2)c(=O)[nH]c1=O (stereo partly specified) | 0.075 µM | > 66.8 µM | > 890 | – | – | – | – | – | Stable | Metabolite_Detected
11 | Cc1cn([C@H]2C[C@H](N=[N+]=[N-])[C@@H](COP(=O)(Nc3ccncc3)Oc3ccccc3)O2)c(=O)[nH]c1=O (stereo partly specified) | 0.05 µM | > 400 µM | > 8000 | 192 h | – | – | – | – | – | –
12 | Cc1cn([C@H]2C[C@H](N=[N+]=[N-])[C@@H](COP(=O)(Nc3ccccc3)Oc3ccccn3)O2)c(=O)[nH]c1=O (stereo partly specified) | < 0.012 µM | > 22 µM | > 1830 | 45 h | – | – | – | – | – | –
13 | Cc1cn([C@H]2C[C@H](N=[N+]=[N-])[C@@H](COP(=O)(Nc3ccncc3)Oc3cccnc3)O2)c(=O)[nH]c1=O (stereo partly specified) | 0.2 µM | > 50 µM | > 250 | 105 h | – | – | – | – | – | –
14 | Cc1cn([C@H]2C[C@H](N=[N+]=[N-])[C@@H](COP(=O)(Nc3ccncc3)Oc3ccncc3)O2)c(=O)[nH]c1=O (stereo partly specified) | – | – | – | – | Nd(Unstable) | Nd(Unstable) | Nd(Unstable) | Nd(Unstable) | – | –
15 | O=c1ccn([C@H]2CC[C@@H](COP(=O)(Nc3cccnc3)Oc3ccccc3)O2)c(=O)[nH]1 (stereo partly specified) | > 30 µM | 225 µM | < 7.5 | 168 h | – | – | – | – | – | –
